{"source": "paper PMC9128806", "about": "(Journal of medicinal chemistry, 2021)", "key": {"[1]": {"system": "human leukemia EU-1 cell line", "assay": "WST antiproliferative/cytotoxicity assay, EU-1", "assay_type": "cell-based", "settings": "for fold drop in potency, para to meta position: 16 vs 13, 17 vs 14; for fold increased potency compared to 2: para-ester replaced by acetyl or isobutyryl"}, "[2]": {"settings": "mice; cited from earlier work"}, "MDM2 [3]": {"molecular_target": "T1, MDM2 (Homo sapiens, UniProt Q00987)", "T1 sequence (Q00987 whole entry)": "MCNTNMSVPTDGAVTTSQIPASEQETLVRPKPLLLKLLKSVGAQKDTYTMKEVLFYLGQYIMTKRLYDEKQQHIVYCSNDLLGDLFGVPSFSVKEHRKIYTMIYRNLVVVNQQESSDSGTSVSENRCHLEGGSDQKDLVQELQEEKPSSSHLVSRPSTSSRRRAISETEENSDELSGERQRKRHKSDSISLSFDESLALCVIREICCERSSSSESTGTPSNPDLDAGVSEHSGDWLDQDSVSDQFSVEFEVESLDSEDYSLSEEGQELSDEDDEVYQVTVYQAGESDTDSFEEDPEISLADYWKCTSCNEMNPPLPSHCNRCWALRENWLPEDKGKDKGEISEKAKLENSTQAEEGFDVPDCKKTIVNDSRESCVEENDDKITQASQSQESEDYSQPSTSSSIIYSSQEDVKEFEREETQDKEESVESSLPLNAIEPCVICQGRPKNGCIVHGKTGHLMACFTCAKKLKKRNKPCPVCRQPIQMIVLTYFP", "assay": "MDM2 binding", "settings": "subsequent mechanistic studies, no data shown"}, "[4]": {"system": "NB cell lines (NB-1643, SHEP1, and LA1–55N)", "assay": "WST cytotoxicity assay, NB cell lines", "assay_type": "cell-based", "settings": "Homo sapiens, 48 h"}, "XIAP": {"system": "XIAP", "assay": "Western blot, XIAP expression in EU-1 cells", "assay_type": "cell-based, human", "settings": "dose-dependent"}, "p53, p21 and PUMA": {"system": "p53, p21 and PUMA", "assay": "Western blot, p53 and its targets p21 and PUMA", "assay_type": "cell-based, human", "settings": "EU-1 cells; accompanying MDM2 downregulation"}, "MDM2 [5]": {"molecular_target": "T1, MDM2", "assay": "Western blot, MDM2 expression in EU-1 cells", "assay_type": "cell-based"}, "[6]": {"system": "ALL cell lines (EU-1 and EU-3)", "assay": "WST cytotoxicity assay, ALL cell lines", "assay_type": "cell-based", "settings": "Homo sapiens, 48 h"}, "[7]": {"system": "human normal bone marrow mononuclear (NBMM) cells", "assay": "Clonogenic assays for CFU-GM and BFU-E", "assay_type": "cell-based", "settings": "1 μM, colonies counted after 14 days, vs control"}}}
{"smiles": "CC(=O)c1cccc(C2Nc3ccc(S(=O)(=O)Nc4ccc(C)c(C)c4)cc3C3OCCC23)c1", "note": "(stereo not drawn) [Compound 16, 4-(3-Acetylphenyl)-N-(3,4-dimethylphenyl)-2,3,3a,4,5,9b-hexahydrofuro[3,2-c]quinoline-8-sulfonamide]", "values": [{"measurement": "fold drop in potency, para to meta position", "setting": "[1]", "result": 4, "unit": "fold"}]}
{"smiles": "Cc1ccc(NS(=O)(=O)c2ccc3c(c2Cl)C2C=CCC2C(c2ccc(S(C)(=O)=O)cc2)N3)cc1C", "note": "(stereo not drawn) [Compound 44, 9-Chloro-N-(3,4-dimethylphenyl)-4-(4-(methylsulfonyl)phenyl)-3a,4,5,9b-tetrahydro-3H-cyclopenta[c]quinolone-8-sulfonamide]", "values": [{"measurement": "fold less potent than parent compound 42", "setting": "[1]; EU-1 IC50 ratio", "result": "approximately 6 fold"}]}
{"smiles": "Cc1ccc(NS(=O)(=O)c2ccc3c(c2)C2CCCC2C(c2ccc(C(=O)C(C)C)cc2)N3)cc1C", "note": "(stereo not drawn) [Compound 28, N-(3,4-Dimethylphenyl)-4-(4-isobutyrylphenyl)-2,3,3a,4,5,9b-hexahydro-1H-cyclopenta[c]quinoline-8-sulfonamide]", "values": [{"measurement": "fold drop in potency compared to 27", "setting": "[1]; saturation of cyclopentene double bond", "result": "approximately 3 fold"}]}
{"smiles": "Cc1ccc(N(C)S(=O)(=O)c2ccc3c(c2)C2OCCC2C(c2ccc(C(=O)C(C)C)cc2)N3)cc1C", "note": "(stereo not drawn) [Compound 46, N-(3,4-Dimethylphenyl)-4-(4-isobutyrylphenyl)-N-methyl-2,3,3a,4,5,9b-hexahydrofuro[3,2-c]quinoline-8-sulfonamide]", "values": [{"measurement": "fold decreased potency compared to 14", "setting": "[1]; EU-1 IC50 ratio", "result": 3, "unit": "fold"}]}
{"smiles": "Cc1ccc(N(C)S(=O)(=O)c2ccc3c(c2)C2OCCC2C(c2ccc(C(=O)C(C)C)cc2)N3C)cc1C", "note": "(stereo not drawn) [Compound 45, N-(3,4-Dimethylphenyl)-4-(4-isobutyrylphenyl)-N,5-dimethyl-2,3,3a,4,5,9b-hexahydrofuro[3,2-c]quinoline-8-sulfonamide]", "values": [{"measurement": "fold decreased potency compared to 14", "setting": "[1]; EU-1 IC50 ratio", "result": 2, "unit": "fold"}]}
{"smiles": "Cc1ccc(NS(=O)(=O)c2ccc3c(c2)C2OCCC2C(c2ccc(C(=O)c4ccccc4)cc2)N3)cc1C", "note": "(stereo not drawn) [Compound 26, 4-(4-Benzoylphenyl)-N-(3,4-dimethylphenyl)-2,3,3a,4,5,9b-hexahydrofuro[3,2-c]quinoline-8-sulfonamide]", "values": [{"measurement": "fold decreased potency compared to 14", "setting": "[1]; EU-1 IC50 ratio", "result": "approximately 6 fold"}]}
{"smiles": "Cc1ccc(NS(=O)(=O)c2ccc3c(c2)C2C=CCC2C(c2ccc(C(=O)O)cc2)N3)cc1C", "note": "(stereo not drawn) [MX69]", "values": [{"measurement": "tolerability", "setting": "[2]", "result": "well tolerated"}]}
{"smiles": "Cc1ccc(NS(=O)(=O)c2ccc3c(c2)C2OCCC2C(c2ccc(C(=O)C4CCCCC4)cc2)N3)cc1C", "note": "(stereo not drawn) [Compound 25, 4-(4-(Cyclohexanecarbonyl)phenyl)-N-(3,4-dimethylphenyl)-2,3,3a,4,5,9b-hexahydrofuro[3,2-c]quinoline-8-sulfonamide]", "values": [{"measurement": "fold decreased potency compared to 14", "setting": "[1]; EU-1 IC50 ratio", "result": "approximately 6 fold"}]}
{"smiles": "Cc1ccc(NS(=O)(=O)c2ccc3c(c2)C2OCCC2C(c2ccc(C(O)C(C)C)cc2)N3)cc1C", "note": "(stereo not drawn) [Compound 15, N-(3,4-Dimethylphenyl)-4-(4-(1-hydroxy-2-methylpropyl)phenyl)-2,3,3a,4,5,9b-hexahydrofuro[3,2-c]-quinoline-8-sulfonamide]", "values": [{"measurement": "fold decreased potency compared to 14", "setting": "[1]; EU-1 IC50 ratio", "result": "approximately 4 fold"}]}
{"smiles": "CC(=O)c1ccc(C2Nc3ccc(S(=O)(=O)Nc4ccc(C)c(C)c4)cc3C3OCCC23)cc1", "note": "(stereo not drawn) [Compound 13, 4-(4-Acetylphenyl)-N-(3,4-dimethylphenyl)-2,3,3a,4,5,9b-hexahydrofuro[3,2-c]quinoline-8-sulfonamide]", "values": [{"measurement": "binding to the MDM2 target", "setting": "MDM2 [3]", "result": "does not bind to the MDM2 target"}, {"measurement": "fold increased potency compared to 2", "setting": "[1]", "result": "approximately 4 fold"}]}
{"smiles": "Cc1ccc(NS(=O)(=O)c2ccc3c(c2)C2OCCC2C(c2ccc(C(=O)C(C)C)cc2)N3)cc1C", "note": "(stereo not drawn) [Compound 14, N-(3,4-Dimethylphenyl)-4-(4-isobutyrylphenyl)-2,3,3a,4,5,9b-hexahydrofuro[3,2-c]quinoline-8-sulfonamide]", "values": [{"measurement": "IC50", "setting": "[4]", "result": "500 to 1200", "unit": "nM"}, {"measurement": "XIAP expression", "setting": "XIAP", "result": "remarkable downregulation"}, {"measurement": "fold increased potency compared to 2", "setting": "[1]", "result": "approximately 4 fold"}, {"measurement": "p53 expression", "setting": "p53, p21 and PUMA", "result": "increased expression of p53"}, {"measurement": "time after treatment at which downregulation of MDM2 and XIAP occurred", "setting": "MDM2 [5]; MDM2 and XIAP", "result": "2 to 4", "unit": "h"}, {"measurement": "MDM2 expression", "setting": "MDM2 [5]; dose-dependent", "result": "remarkable downregulation"}, {"measurement": "IC50", "setting": "[6]", "result": "300 to 400", "unit": "nM"}]}
{"smiles": "COc1cccc2c1C(=O)c1c(O)c3c(c(O)c1C2=O)C[C@@](O)(C(=O)CO)C[C@@H]3O[C@H]1C[C@H](N)[C@H](O)[C@H](C)O1", "note": "[Dox, doxorubicin]", "values": [{"measurement": "CFU-GM and BFU-E colony numbers and size", "setting": "[7]", "result": "significantly reduced"}]}
{"smiles": "Cc1ccc(NS(=O)(=O)c2ccc3c(c2)C2C=CCC2C(c2ccc(C(=O)C(C)C)cc2)N3)cc1C", "note": "(stereo not drawn) [Compound 27, N-(3,4-Dimethylphenyl)-4-(4-isobutyrylphenyl)-3a,4,5,9b-tetrahydro-3H-cyclopenta[c]quinoline-8-sulfonamide]", "values": [{"measurement": "fold decreased potency compared to 14", "setting": "[1]; EU-1 IC50 ratio", "result": 5, "unit": "fold"}]}
{"smiles": "Cc1ccc(NS(=O)(=O)c2ccc3c(c2)C2NCCC2C(c2ccc(C(=O)C(C)C)cc2)N3)cc1C", "note": "(stereo not drawn) [Compound 30, N-(3,4-Dimethylphenyl)-4-(4-isobutyrylphenyl)-2,3,3a,4,5,9b-hexahydro-1H-pyrrolo[3,2-c]quinoline-8-sulfonamide]", "values": [{"measurement": "fold decreased potency compared to 14", "setting": "[1]; EU-1 IC50 ratio", "result": 6, "unit": "fold"}]}
{"smiles": "Cc1ccc(NS(=O)(=O)c2ccc3c(c2)[C@H]2OCC[C@H]2[C@@H](c2ccc(C(=O)C(C)C)cc2)N3)cc1C", "note": "[Compound 14d, (3aS,4S,9bS)-N-(3,4-Dimethylphenyl)-4-(4-isobutyrylphenyl)-2,3,3a,4,5,9b-hexahydrofuro[3,2-c]quinoline-8-sulfonamide]", "values": [{"measurement": "fold higher potency compared to the other three isomers", "setting": "[1]; 14d vs 14a–c", "result": "5- to 8 fold"}]}
{"smiles": "Cc1ccc(NS(=O)(=O)c2ccc3c(c2)C2OCCC2C(c2cccc(C(=O)C(C)C)c2)N3)cc1C", "note": "(stereo not drawn) [Compound 17, N-(3,4-Dimethylphenyl)-4-(3-isobutyrylphenyl)-2,3,3a,4,5,9b-hexahydrofuro[3,2-c]quinoline-8-sulfonamide]", "values": [{"measurement": "fold drop in potency, para to meta position", "setting": "[1]", "result": 7, "unit": "fold"}]}
{"smiles": "Cc1ccc(NS(=O)(=O)c2ccc3c(c2)C2OCCC2C(c2ccc(C(=O)C4CC4)cc2)N3)cc1C", "note": "(stereo not drawn) [Compound 22, 4-(4-(Cyclopropanecarbonyl)phenyl)-N-(3,4-dimethylphenyl)-2,3,3a,4,5,9b-hexahydrofuro[3,2-c]quinoline-8-sulfonamide]", "values": [{"measurement": "fold decreased potency compared to 14", "setting": "[1]; EU-1 IC50 ratio", "result": 10, "unit": "fold"}]}
